Among the data in patent publication US9072698B2, “Method for screening anti-cancer compounds inhibiting function of TM4SF5 and anti-cancer composition containing chalcone compounds” (Seoul National University Industry Foundation, priority 2006, dated 2015) are IC50 values, retold here.

The structures appear in SMILES notation. In brackets after ≈: the same amount, converted by molar mass.

Format in all cases: cell-based
Assay [1] relates to HCT15 (colon adenocarcinoma). In words: In vitro cytotoxicity, sulforhodamine B (SRB) method, HCT15. To be noted: Homo sapiens; HCT-15, SRB method; read-out: cytotoxicity (ED50) HCT-15. How it is done:
(§1) The chalcone derivatives of the present invention were evaluated for in vitro cytotoxicity against human carcinoma cell lines using a sulforhodamine B (SRB) method, which was developed in 1989 by the National Cancer Institute (NCI), USA.
(§2) HCT15 (colon adenocarcinoma; ATCC CCL-225), PC-3 (prostate adenocarcinoma; ATCC CRL-1435), and A-549 (lung carcinoma; ATCC CCL-185) cell lines were used. All of these carcinoma cells were sub-cultured at the Korean Research Institute of Bioscience and Biotechnology (KRIBB), Korea.
(§3) The human carcinoma cell lines were cultured in 10% FCS-containing RPMI 1640 medium (Gibco Cat. No. 31800) in an incubator at 37° C. under 5% CO2, and sub-cultured twice per week.
(§4) Cells were detached from the attached surface using 0.25% Trypsin (Sigma) and 3 mM CDTA (1,2-cyclohexane diamine tetraacetic acid, Sigma) in phosphate buffered saline (PBS, Sigma).
(§5) Compounds to be tested (the chalcone derivatives set forth in Table 1) were dissolved in a small amount of dimethylsulfoxide (DMSO, Sigma), and diluted in culture medium to a desired concentration. The final concentration of DMSO was less than 0.5%. The diluted compounds (final concentration: 30, 10, 3, 1 and 0.3 μg/ml) were sterilized through a 0.22-μm microfilter (Millipore). The cytotoxicity of the compounds to human carcinoma cell lines was assessed using a typical SRB method.
For orientation: Sulforhodamine B stains cellular protein and so reports cell mass.

The test system of assay [2] is PC-3 (prostate adenocarcinoma). Briefly: In vitro cytotoxicity, sulforhodamine B (SRB) method, PC-3. To be noted: Homo sapiens; PC-3, SRB method; read-out: cytotoxicity (ED50) PC-3. How it is done:
as §1, §2, §3, §4, §5

In a further assay the test system is A-549 (lung carcinoma). In words: In vitro cytotoxicity, sulforhodamine B (SRB) method, A-549. Conditions: Homo sapiens, A549; A-549, SRB method; read-out: cytotoxicity (ED50) A-549. The protocol: as §1, §2, §3, §4, §5

As for `O=C(/C=C/c1ccc(O)cc1O)c1ccc(NS(=O)(=O)c2ccc(O)cc2)cc1` [Compound 50, 4′-(p-hydroxybenzenesulfonylamino)-2,4-dihydroxychalcone], the IC50 in assay [1] came out at 9 µg/mL (≈ 21.9 µM); in assay [2] it was 9 µg/mL (≈ 21.9 µM); in the assay on A-549 (lung carcinoma) it was 10 µg/mL (≈ 24.3 µM).
Consider `Nc1ccc(S(=O)(=O)Nc2ccc(C(=O)/C=C/c3ccc(O)cc3)cc2)cc1` [Compound 30, 4′-(p-aminobenzensulfonylamino)-4-hydroxychalcone], for which the IC50 is 52 µg/mL (≈ 132 µM) in assay [1], 59 µg/mL (≈ 150 µM) in assay [2] and 50 µg/mL (≈ 127 µM) in the assay on A-549 (lung carcinoma).
For `O=C(/C=C/c1ccc(O)c(O)c1)c1ccc(NS(=O)(=O)c2ccccc2F)cc1` [Compound 74, 4′-(o-fluorobenzensulfonylamino)-3,4-dihydroxychalcone] the same measures were 8 µg/mL (≈ 19.4 µM), 14 µg/mL (≈ 33.9 µM) and 11 µg/mL (≈ 26.6 µM).
As for `O=C(/C=C/c1cccc(O)c1O)c1cccc(NS(=O)(=O)c2ccc(O)cc2)c1` [Compound 53, 3′-(p-hydroxybenzenesulfonylamino)-2,3-dihydroxychalcone], the IC50 in assay [1] amounted to 8 µg/mL (≈ 19.4 µM); in assay [2], 8 µg/mL (≈ 19.4 µM); in the assay with A-549 (lung carcinoma), 7 µg/mL (≈ 17 µM).
Consider `O=C(/C=C/c1cccc(O)c1)c1ccccc1NS(=O)(=O)c1ccc(O)cc1` [Compound 13, 2′-(p-hydroxybenzenesulfonylamino)-3-hydroxychalcone], for which the IC50 in assay [1] turned out to be 38 µg/mL (≈ 96.1 µM); in assay [2], 41 µg/mL (≈ 104 µM); with A-549 (lung carcinoma), 36 µg/mL (≈ 91 µM).
In the case of `O=C(/C=C/c1ccc(O)cc1)c1ccc(NS(=O)(=O)c2ccc([N+](=O)[O-])cc2)cc1` [Compound 27, 4′-(p-nitrobenzensulfonylamino)-4-hydroxychalcone], the IC50 in assay [1] was 41 µg/mL (≈ 96.6 µM); in assay [2], 47 µg/mL (≈ 111 µM); in the assay with A-549 (lung carcinoma) it was 34 µg/mL (≈ 80.1 µM).
On the same counts, the results for `Cc1ccc(S(=O)(=O)Nc2ccc(C(=O)/C=C/c3cc(O)ccc3O)cc2)cc1` [Compound 45, 4′-(p-toluenesulfonylamino)-2,5-dihydroxychalcone] are 11 µg/mL (≈ 26.9 µM), 14 µg/mL (≈ 34.2 µM) and 12 µg/mL (≈ 29.3 µM).
For `O=C(/C=C/c1cc(O)ccc1O)c1ccc(NS(=O)(=O)c2cccc(O)c2)cc1` [Compound 63, 4′-(m-hydroxybenzenesulfonylamino)-2,5-dihydroxychalcone] the same measures were 8 µg/mL (≈ 19.4 µM), 14 µg/mL (≈ 34 µM) and 10 µg/mL (≈ 24.3 µM).
In the case of `O=C(/C=C/c1cccc(O)c1)c1ccc(NS(=O)(=O)c2cccc(O)c2)cc1` [Compound 16, 4′-(m-hydroxybenzenesulfonylamino)-3-hydroxychalcone], the IC50 in assay [1] was determined as 37 µg/mL (≈ 93.6 µM); in assay [2] it was 47 µg/mL (≈ 119 µM); in the assay with A-549 (lung carcinoma), 33 µg/mL (≈ 83.5 µM).
Regarding `O=C(/C=C/c1ccc(O)cc1)c1ccc(NS(=O)(=O)c2cccc(O)c2)cc1` [Compound 15, 4′-(m-hydroxybenzenesulfonylamino)-4-hydroxychalcone], the IC50 stood at 33 µg/mL (≈ 83.5 µM) in assay [1], 41 µg/mL (≈ 104 µM) in assay [2] and 43 µg/mL (≈ 109 µM) in the assay with A-549 (lung carcinoma).
Take `Cc1ccc(S(=O)(=O)Oc2ccc(C(=O)/C=C/c3ccc(O)cc3)cc2)cc1` [Compound 35, 4′-(p-toluenesulfonate)-4-hydroxychalcone]: the IC50 was 51 µg/mL (≈ 129 µM) in assay [1], 57 µg/mL (≈ 145 µM) in assay [2] and 47 µg/mL (≈ 119 µM) in the assay on A-549 (lung carcinoma).
As to `O=C(/C=C/c1cc(O)ccc1O)c1ccc(NS(=O)(=O)c2ccc(O)cc2)cc1` [Compound 51, 4′-(p-hydroxybenzenesulfonylamino)-2,5-dihydroxychalcone], the IC50 was found to be 6 µg/mL (≈ 14.6 µM) in assay [1], 11 µg/mL (≈ 26.7 µM) in assay [2] and 13 µg/mL (≈ 31.6 µM) in the assay with A-549 (lung carcinoma).
For `CS(=O)(=O)Nc1ccc(C(=O)/C=C/c2ccc(O)cc2)cc1` [Compound 34, 4′-(methanesulfonylamino)-4-hydroxychalcone] the same measures were 54 µg/mL (≈ 170 µM), 64 µg/mL (≈ 202 µM) and 74 µg/mL (≈ 233 µM).
In the case of `Cc1ccc(S(=O)(=O)Nc2ccccc2C(=O)/C=C/c2ccc(O)cc2)cc1` [Compound 5, 2′-(p-toluenesulfonylamino)-4-hydroxychalcone], the IC50 was 42 µg/mL (≈ 107 µM) in assay [1], 47 µg/mL (≈ 119 µM) in assay [2] and 40 µg/mL (≈ 102 µM) in the assay on A-549 (lung carcinoma).
`O=C(/C=C/c1ccc(O)cc1)c1ccccc1NS(=O)(=O)c1cccc(O)c1` [Compound 21, 2′-(m-hydroxybenzenesulfonylamino)-4-hydroxychalcone]: the figures for the IC50 (in assay [1]; in assay [2]; in the assay with A-549 (lung carcinoma)) were 31 µg/mL (≈ 78.4 µM), 43 µg/mL (≈ 109 µM) and 39 µg/mL (≈ 98.6 µM), respectively.
On to `O=C(/C=C/c1cc(O)ccc1O)c1ccc(OS(=O)(=O)c2ccc(O)cc2)cc1` [Compound 93, 4′-(p-hydroxybenzenesulfonate)-2,5-dihydroxychalcone], for which the IC50 in assay [1] amounted to 6 µg/mL (≈ 14.5 µM); in assay [2], 14 µg/mL (≈ 33.9 µM); in the assay on A-549 (lung carcinoma) it was 8 µg/mL (≈ 19.4 µM).
For `O=C(/C=C/c1ccc(O)cc1)c1ccc(NS(=O)(=O)c2cccc([N+](=O)[O-])c2)cc1` [Compound 28, 4′-(m-nitrobenzensulfonylamino)-4-hydroxychalcone] the same measures were 54 µg/mL (≈ 127 µM), 57 µg/mL (≈ 134 µM) and 59 µg/mL (≈ 139 µM).
Take `O=C(/C=C/c1cccc(O)c1)c1cccc(NS(=O)(=O)c2cccc(O)c2)c1` [Compound 19, 3′-(m-hydroxybenzenesulfonylamino)-3-hydroxychalcone]: the IC50 in assay [1] is 38 µg/mL (≈ 96.1 µM); in assay [2], 53 µg/mL (≈ 134 µM); in the assay with A-549 (lung carcinoma), 47 µg/mL (≈ 119 µM).
On the same counts, the results for `O=C(/C=C/c1ccc(O)cc1)c1ccc(NS(=O)(=O)c2ccc(O)cc2)cc1` [Compound 6, 4′-(p-hydroxybenzenesulfonylamino)-4-hydroxychalcone] are 37 µg/mL (≈ 93.6 µM), 33 µg/mL (≈ 83.5 µM) and 41 µg/mL (≈ 104 µM).
As to `O=C(/C=C/c1ccc(O)c(O)c1)c1cccc(NS(=O)(=O)c2cccc(O)c2)c1` [Compound 64, 3′-(m-hydroxybenzenesulfonylamino)-3,4-dihydroxychalcone], the IC50 in assay [1] is 4 µg/mL (≈ 9.72 µM); in assay [2], 7 µg/mL (≈ 17 µM); with A-549 (lung carcinoma), 3 µg/mL (≈ 7.29 µM).
On to `O=C(/C=C/c1ccc(O)c(O)c1)c1ccccc1NS(=O)(=O)c1ccc(O)cc1` [Compound 56, 2′-(p-hydroxybenzenesulfonylamino)-3,4-dihydroxychalcone], for which the IC50 is 5 µg/mL (≈ 12.2 µM) in assay [1], 6 µg/mL (≈ 14.6 µM) in assay [2] and 3 µg/mL (≈ 7.29 µM) in the assay on A-549 (lung carcinoma).
Turning to `O=C(/C=C/c1ccc(O)c(O)c1)c1ccccc1NS(=O)(=O)c1cccc(O)c1` [Compound 68, 2′-(m-hydroxybenzenesulfonylamino)-3,4-dihydroxychalcone], the IC50 in assay [1] amounted to 6 µg/mL (≈ 14.6 µM); in assay [2], 10 µg/mL (≈ 24.3 µM); in the assay with A-549 (lung carcinoma) it was 8 µg/mL (≈ 19.4 µM).
In the case of `O=C(/C=C/c1ccc(O)c(O)c1)c1ccc(OS(=O)(=O)c2ccc(O)cc2)cc1` [Compound 90, 4′-(p-hydroxybenzenesulfonate)-3,4-dihydroxychalcone], the IC50 came to 6 µg/mL (≈ 14.5 µM) in assay [1], 8 µg/mL (≈ 19.4 µM) in assay [2] and 4 µg/mL (≈ 9.7 µM) in the assay with A-549 (lung carcinoma).
On to `O=C(/C=C/c1cccc(O)c1O)c1ccc(OS(=O)(=O)c2cccc(O)c2)cc1` [Compound 95, 4′-(m-hydroxybenzenesulfonate)-2,3-dihydroxychalcone], for which the values for the IC50 (in assay [1]; in assay [2]; with A-549 (lung carcinoma)) were 9 µg/mL (≈ 21.8 µM), 11 µg/mL (≈ 26.7 µM) and 9 µg/mL (≈ 21.8 µM), respectively.
Turning to `O=C(/C=C/c1ccccc1O)c1cccc(NS(=O)(=O)c2cccc(O)c2)c1` [Compound 20, 3′-(m-hydroxybenzenesulfonylamino)-2-hydroxychalcone], the IC50 in assay [1] worked out at 40 µg/mL (≈ 101 µM); in assay [2], 39 µg/mL (≈ 98.6 µM); with A-549 (lung carcinoma), 35 µg/mL (≈ 88.5 µM).
For `O=C(/C=C/c1ccc(O)cc1)c1ccc(OS(=O)(=O)c2ccc([N+](=O)[O-])cc2)cc1` [Compound 38, 4′-(p-nitrobenzenesulfonate)-4-hydroxychalcone] the same measures were 52 µg/mL (≈ 122 µM), 47 µg/mL (≈ 110 µM) and 57 µg/mL (≈ 134 µM).
Regarding `Nc1cccc(S(=O)(=O)Nc2ccc(C(=O)/C=C/c3ccc(O)c(O)c3)cc2)c1` [Compound 79, 4′-(m-aminobenzensulfonylamino)-3,4-dihydroxychalcone], the IC50 was found to be 7 µg/mL (≈ 17.1 µM) in assay [1], 15 µg/mL (≈ 36.5 µM) in assay [2] and 8 µg/mL (≈ 19.5 µM) with A-549 (lung carcinoma).
For the compound `O=C(/C=C/c1ccc(O)cc1O)c1cccc(NS(=O)(=O)c2cccc(O)c2)c1` [Compound 66, 3′-(m-hydroxybenzenesulfonylamino)-2,4-dihydroxychalcone], the IC50 in assay [1] stood at 11 µg/mL (≈ 26.7 µM); in assay [2] it was 13 µg/mL (≈ 31.6 µM); in the assay on A-549 (lung carcinoma) it was 11 µg/mL (≈ 26.7 µM).
On to `O=C(/C=C/c1cccc(O)c1O)c1ccccc1NS(=O)(=O)c1ccc(O)cc1` [Compound 57, 2′-(p-hydroxybenzenesulfonylamino)-2,3-dihydroxychalcone], for which the IC50 in assay [1] was found to be 9 µg/mL (≈ 21.9 µM); in assay [2], 10 µg/mL (≈ 24.3 µM); with A-549 (lung carcinoma), 7 µg/mL (≈ 17 µM).
As to `O=C(/C=C/c1cccc(O)c1O)c1ccccc1NS(=O)(=O)c1cccc(O)c1` [Compound 69, 2′-(m-hydroxybenzenesulfonylamino)-2,3-dihydroxychalcone], the IC50 in assay [1] turned out to be 7 µg/mL (≈ 17 µM); in assay [2] it was 16 µg/mL (≈ 38.9 µM); in the assay with A-549 (lung carcinoma) it was 8 µg/mL (≈ 19.4 µM).
